Converted amounts (≈) assume the structure as drawn.
settings: buffer; pH 7.4; 200.0 µM

Compound	solubility kinetic [µg/mL]
COc1cc(NC(=O)CCN2CCN(CCO)CC2)cc(OC)c1	44.5 (≈ 132 µM)
O=C1NC(=O)N(CC2CCCO2)C(=O)/C1=C/c1cccs1 (stereo unspecified)	> 46
O=C(CN1CCN(c2ccc(F)cc2)CC1)NCc1ccc(Cl)cc1	51.2 (≈ 141 µM)
CC1(c2ccc3ccccc3c2)NC(=O)N(CC(N)=O)C1=O (stereo unspecified)	> 44.6
O=C(O)CCCN1C(=O)c2ccccc2Sc2ncccc21	> 47.2
CNc1ccc(C(=O)OCC(=O)NC(=O)NC2CCCCC2)cc1[N+](=O)[O-]	1.7 (≈ 4.49 µM)
Cc1c[n+](CC(=O)c2ccccc2)c(C)cn1.[Br-]	27
C=C1CCc2c([nH]c3ccc(OCC(C)C)cc23)C1=O	0.8 (≈ 2.97 µM)
O=C(C1CCCCC1)N1CC(=O)N2CCc3ccccc3C2C1 (stereo unspecified)	> 46.9
N#Cc1c(N)c(C(=O)c2ccccc2)n2ccccc12	31.4 (≈ 120 µM)
O=C(OCC(=O)N1CCCCC1)c1cc(=O)[nH]c2ccccc12	> 47.2
COC(=O)C1=C(NC(=O)c2ccccc2C)CCS1	10 (≈ 36.1 µM)
CCC1CCC(N2CCN(c3ccc([N+](=O)[O-])cc3)CC2)CC1 (stereo unspecified)	8.9 (≈ 28 µM)
O=C(OCc1cnc(Cl)s1)c1cccs1	26.5 (≈ 102 µM)
CCc1ccc(N2CCN(CCNC(=O)Nc3ccccc3)CC2)cc1	1.3 (≈ 3.69 µM)
CC(C)N(CCc1ccncc1)C(=S)Nc1cccc(Cl)c1	43.2 (≈ 129 µM)
CCCCSCCCNC(=O)Nc1ccc(CC)cc1	3.6 (≈ 12.2 µM)
O=C1NC2=C(C(=O)CCC2)C(c2ccccc2[N+](=O)[O-])N1 (stereo unspecified)	> 43.1
CSCCC(NC(=O)C1CCCCC1)c1nc2ccccc2[nH]1 (stereo unspecified)	23 (≈ 69.4 µM)
COc1ccc(C2Nc3ccccc3NC3=C2C(=O)CC(C)(C)C3)cc1O (stereo unspecified)	34.7 (≈ 95.2 µM)
CC(=O)Nc1ccc(Cl)c(-c2nc3ncccc3o2)c1	41.5 (≈ 144 µM)
CC(C)(C)NC(=O)CN(C(=O)C1CSC(=O)C1)c1ccccc1F (stereo unspecified)	33.3 (≈ 94.5 µM)
Cc1cccc(NC(=O)COC(=O)CCc2ccccc2)c1C	5.9 (≈ 18.9 µM)
COc1ccc(CCNC(=O)/C=C/C(=O)O)cc1OC	> 41.9
CC1CCN(CC(=O)Nc2nccs2)CC1	> 35.9

Compound	solubility kinetic [µg/mL]
CCOC(=O)C1CCCN(C(=O)c2ccccc2NS(=O)(=O)c2ccc(F)cc2)C1 (stereo unspecified)	> 65.2
Cn1c(=O)c2c(ncn2CCC(=O)N/N=C/c2ccncc2)n(C)c1=O	> 53.3
Br.COc1cccc(C(=O)CSc2nccn2C)c1	> 51.5
COC(=O)Cn1ncc(N(C)Cc2ccccc2)c(Cl)c1=O	> 48.3
COc1ccc(S(=O)(=O)Nc2cccnc2)cc1	> 39.6
COc1ccc(-n2ccc(=O)c(C(=O)O)n2)cc1	> 36.9
CN1CCC(N(C)C(=O)CNC(=O)c2ccc(C(C)(C)C)cc2)CC1	39.5 (≈ 114 µM)
Cc1c(NS(=O)(=O)c2cc(C(=O)NCc3cccnc3)ccc2Cl)c(=O)n(-c2ccccc2)n1C	> 76.8
CCCC(=O)OCC(=O)Nc1ccc([N+](=O)[O-])cc1C#N	> 43.7
Cl.NC(=NCCc1ccccc1)NC(=O)c1cc(Cl)ccc1O	10.6
CC1(C)Cc2ccccc2-c2[nH]c(=S)[nH]c(=O)c21	30.1 (≈ 117 µM)
CS(=O)(=O)N1CCc2cc(C(=O)N3CCCC3)ccc21	> 44.2
COC(=O)c1cnn2c1C(=O)N(Cc1cccs1)CC2	> 43.7
CC(=O)NC(Cc1c[nH]c2ccccc12)C(=O)NCCc1ccccc1 (stereo unspecified)	> 52.4
COCCN(CCOC)C(=O)Nc1ccc(Cl)cc1	> 43
Cc1cc(C(=O)Nc2ccc(N3CCCCC3)cc2)no1	6.8 (≈ 23.8 µM)
CCCC(=O)Nc1cc(C(=O)O)ccc1Sc1ccc(C)cc1	> 49.4
COc1cccc(C=N[C@@H](CO)[C@@H](O)c2ccc([N+](=O)[O-])cc2)c1O	50.6 (≈ 146 µM)
Cn1c(=O)n(CC(N)=O)c(=O)c2c1nc1n2CCCN1Cc1ccccc1	30.8 (≈ 83.6 µM)
Br.Nc1ncc([N+](=O)[O-])cc1Br	> 44.8
Cc1nn(C)c(C)c1NS(=O)(=O)c1ccc(Cl)s1	> 45.9
Cc1cccc(NC(=S)NCCc2ccc3c(c2)OCCO3)c1C	27.7 (≈ 80.9 µM)
Cc1ccccc1OCC(=O)OCC(=O)NCC1CCCCC1	7.6 (≈ 23.8 µM)
NC(=O)c1ccc(=O)n(Cc2ccc(F)c(F)c2)c1	> 39.6
COc1ccc(CNC(=O)C2CCN(C(=O)Cc3ccccc3)CC2)cc1	> 55

Compound	solubility kinetic [µg/mL]
Cc1cc(C(=O)Nc2cc(Br)ccc2O)on1	7.6 (≈ 25.6 µM)
O=C1CCCN1S(=O)(=O)c1ccc(F)cc1	> 36.5
O=C(NC(=S)Nc1ccccc1O)c1cncc(Br)c1	9.4 (≈ 26.7 µM)
O=C(Nc1ccc(OCc2ccccc2)cc1)c1cccs1	< 0.7
CCNc1ccc(C(=O)OCC(=O)N2CCCC2)cc1[N+](=O)[O-]	43.9 (≈ 137 µM)
COc1ccc(CSc2nc(C)cc(C)c2C#N)cc1	2.7 (≈ 9.49 µM)
Cc1ccc(-c2nc(N)sc2-c2ccc(C)cc2)cc1	0.5 (≈ 1.78 µM)
Cc1cc(N/C=C/C(=O)c2ccccc2)ccc1Br	< 0.7
CCC(C)NC(=O)c1cc(-c2cccs2)nc2ccccc12 (stereo unspecified)	2.4 (≈ 7.73 µM)
CCN(CC(=O)Nc1c(F)cccc1F)C(=O)CSc1ccc(F)cc1	> 57.4
CS(=O)(=O)Nc1ccc2c(c1)ncn2CCc1ccccc1	> 47.3
CN(C)/C=C/C(=O)c1ccn(S(=O)(=O)c2ccccc2)c1	> 45.7
O=C(COc1ccc(F)cc1)N1CCCCCCC1	38.8 (≈ 146 µM)
Cc1cccc(N2C(=O)CC(SC(N)=Nc3ccccc3)C2=O)c1 (stereo unspecified)	3 (≈ 8.84 µM)
COCCOc1ccc(C(F)(F)F)cc1N	31.9 (≈ 136 µM)
Cc1nc(NC(=O)c2cncc(Br)c2)ccc1Br	2.1 (≈ 5.66 µM)
Cc1ccc(CC(=O)NC2CCN(Cc3ccccc3)CC2)cc1	41.7 (≈ 129 µM)
O=C(CCCCN1CCCCC1)c1ccc2c(c1)Cc1ccccc1-2	6.6 (≈ 19.8 µM)
CCOc1ccc(OCCn2c(=S)[nH]c3ccccc32)cc1	0.9 (≈ 2.86 µM)
O=C(O)CCCC(=O)Nc1cccc([N+](=O)[O-])c1	> 37.8
CCN(CC)c1ccc(NC(=O)c2ccccc2Br)cc1S(=O)(=O)Nc1ccccc1OC	0.6 (≈ 1.13 µM)
Cc1ccc(NC(=S)NCc2ccco2)c(C)c1	> 39.1
C=CCNc1nc(NCc2ccccc2)c(C#N)c2c1CN(C)CC2	3 (≈ 9 µM)
Cc1ccc(NS(=O)(=O)c2ccc(NC(=O)c3ccccc3C(=O)O)cc2)cc1C	> 63.7
Cc1ccc(S(=O)(=O)Nc2c(C)nn(C)c2C)cc1C	> 44

Compound	solubility kinetic [µg/mL]
CN=C1S/C(=C\c2c(OC)cc(OC)cc2OC)C(=O)N1C	1.1 (≈ 3.41 µM)
FC(F)(F)c1cccc(-c2nc(-c3ccncc3)no2)c1	0.4 (≈ 1.37 µM)
COc1ccc(NC(=S)N2CCc3ccccc32)cc1OC	> 47.2
COc1ccc(C(=O)NCC(=O)OCC(=O)NC2CCCCCC2)cc1	> 54.4
C/C=C/c1ccc(OCc2cc(=O)n3cc(C)ccc3n2)c(OC)c1	9.1 (≈ 27.1 µM)
COc1ccc(OC)c(NC(=O)CCNC(=O)c2ccco2)c1	44.7 (≈ 140 µM)
CCCC(=O)Nc1sc2c(c1C(=O)OCC)CC(C)(C)OC2	4.6 (≈ 14.1 µM)
CC(Sc1nncn1C)C(=O)Nc1ccc(N2CCCCC2)cc1 (stereo unspecified)	> 51.8
COc1ccc(S(=O)(=O)Nc2cc3[nH]c(=O)oc3cc2C)cc1	> 50.2
Cn1c(CN2CCN(S(C)(=O)=O)CC2)nc2cc([N+](=O)[O-])ccc21	> 53
COc1ccc(S(=O)(=O)Nc2cccc(F)c2)cc1C	> 44.3
Cc1ccsc1C(=O)N[C@@H](C)c1nnc2ccccn12	> 43
CCN1CCN(S(=O)(=O)c2c(C)cc(C)cc2C)CC1	> 44.5
O=C(COc1ccc(Cl)cc1)N1CCCCCCC1	31.8 (≈ 113 µM)
S=C1NCN(Cc2ccco2)CN1CCc1ccccc1	9.6 (≈ 31.8 µM)
Brc1cnc2nc[nH]c2c1	> 29.7
COc1ccc(CCNC(=O)/C=C/c2ccco2)cc1OC	> 45.2
CC1CC(C)CN(C(=O)CNS(=O)(=O)c2cccs2)C1 (stereo unspecified)	17.6 (≈ 55.6 µM)
Cc1ccc(CNC(=O)C(c2ccccc2)c2ccccc2)cc1	< 0.7
COc1ccccc1CNC(=O)CCCNC(=O)c1ccc(Cl)cc1	20.6 (≈ 57.1 µM)
CCCn1c(O)c(N=N)c2ccccc21	> 30.5
N#Cc1cnc(Nc2ccc(F)cc2)nc1N	4.7 (≈ 20.5 µM)
CN(C)/C=C/C(=O)c1ccc(C(F)(F)F)cc1F	35 (≈ 134 µM)
O=C1c2ccccc2C(=O)N1S(=O)(=O)c1ccccc1	> 43.1
CCCOc1nc2ccccc2cc1/C=C/C(=O)O	8.3 (≈ 32.3 µM)

Compound	solubility kinetic [µg/mL]
Cc1cnc(C(=O)Nc2cc(F)ccc2C)cn1	15.6 (≈ 63.6 µM)
O=C(Nc1ccccc1Cl)Nc1ccccc1Cl	< 0.3
Cc1ccccc1-c1nc2sc(C)c(C)c2c(=O)o1	< 0.6
CC(OC(=O)C1CCCC1)C(=O)Nc1ncc(Cl)cc1Cl (stereo unspecified)	49.1 (≈ 148 µM)
Cc1ccc(C(=O)OC(C)CN2CCN(C)CC2)cc1.Cl (stereo unspecified)	40.8
O=C(c1ccccc1)N1C(=O)C(c2ccccc2)Oc2ccccc21 (stereo unspecified)	3.1 (≈ 9.41 µM)
Cc1[nH]c2c(C)cccc2c1CC(=O)O	> 30.5
N#Cc1c(-c2ccccc2)oc(=O)c2ccccc12	1.2 (≈ 4.85 µM)
Cc1ccc(Cl)cc1NC(=O)CN1C(=O)NC(C)(C2CC2)C1=O (stereo unspecified)	> 50.4
Cc1ccc(NC(=O)CCN2C(=O)NC(C)(C)C2=O)cc1F	> 46.1
O=[N+]([O-])c1ccc(CN2CCCCCC2)cc1	> 35.1
NS(=O)(=O)c1ccc(Sc2ccc3c(c2)CCC3)nc1	2.5 (≈ 8.16 µM)
O=C(CN1C(=O)CCSc2ccccc21)NC1CCCCC1	43.3 (≈ 136 µM)
O=Cc1ccc2ccc3cccnc3c2n1	> 31.2
COc1ccc(OCCOCCN2CCN(C)CC2)cc1.O=C(O)C(=O)O	54.2
COc1cc(OC)c(C=O)c(OC(=O)N(C)C)c1	35.8 (≈ 141 µM)
O=C(O)Cc1csc(-c2cccc(F)c2)n1	> 35.6
O=C(Cn1cnc([N+](=O)[O-])c1)NCCc1ccccc1	> 41.1
COC(=O)c1ccc(NC(=O)C(=O)c2c[nH]c3ccccc23)cc1	< 0.3
CC(C)C(NC(=O)c1ccccc1NC(=O)C(C)(C)C)C(=O)N1CCOCC1 (stereo unspecified)	37 (≈ 95 µM)
CC(C)(C)OC(=O)N1CCC[C@@H]1CO	> 30.2

Reference: PubChem BioAssay AID1996
